# Data: article PMC10698726 (Molecular Pharmaceutics, 2023)
# Read-outs that look alike come from different tables or passages of the source.
# How the values were obtained:
# [1] = biological target: T1, OCT2 (Homo sapiens, UniProt O15244); assay: Inhibition of model substrate uptake in OCT2-overexpressing HEK293 cells; conditions: for inhibition at 5 min, 20 μM / (S,S)-Ethambutol inhibition [%] / ASP+ inhibition [%] / N-Ethyllidocaine inhibition [%]: OCT2, 20 μM inhibitor; for IC50: IC50, OCT2, Table S5, 2 μM ASP+ as model substrate; for inhibition at 5 min, 20 μM / IC50 / (S,S)-Ethambutol inhibition [%] / ASP+ inhibition [%] / N-Ethyllidocaine inhibition [%]: 5 min
# T1 sequence (O15244 1-555): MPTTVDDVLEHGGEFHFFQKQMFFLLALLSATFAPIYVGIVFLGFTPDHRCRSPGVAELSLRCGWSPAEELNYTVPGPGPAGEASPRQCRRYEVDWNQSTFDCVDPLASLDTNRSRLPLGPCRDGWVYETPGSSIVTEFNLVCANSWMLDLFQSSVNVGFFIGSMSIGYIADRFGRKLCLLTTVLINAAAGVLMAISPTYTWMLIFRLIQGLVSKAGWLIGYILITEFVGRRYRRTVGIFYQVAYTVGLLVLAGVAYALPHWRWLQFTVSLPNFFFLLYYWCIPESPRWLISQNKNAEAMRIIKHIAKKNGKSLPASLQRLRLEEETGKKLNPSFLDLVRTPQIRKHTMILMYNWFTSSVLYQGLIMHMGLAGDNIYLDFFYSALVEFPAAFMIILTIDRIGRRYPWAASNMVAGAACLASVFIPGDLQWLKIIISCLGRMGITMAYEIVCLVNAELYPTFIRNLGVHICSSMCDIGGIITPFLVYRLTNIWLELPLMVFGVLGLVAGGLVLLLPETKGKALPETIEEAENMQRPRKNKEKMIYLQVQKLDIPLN
# [2] = biological target: T2, OCT3 (Homo sapiens, UniProt O75751); assay: Inhibition of model substrate uptake in OCT3-overexpressing HEK293 cells; format: cell-based
# T2 construct: expressed in transfected cells; host or cells: HEK293
# T2 sequence (O75751 1-556): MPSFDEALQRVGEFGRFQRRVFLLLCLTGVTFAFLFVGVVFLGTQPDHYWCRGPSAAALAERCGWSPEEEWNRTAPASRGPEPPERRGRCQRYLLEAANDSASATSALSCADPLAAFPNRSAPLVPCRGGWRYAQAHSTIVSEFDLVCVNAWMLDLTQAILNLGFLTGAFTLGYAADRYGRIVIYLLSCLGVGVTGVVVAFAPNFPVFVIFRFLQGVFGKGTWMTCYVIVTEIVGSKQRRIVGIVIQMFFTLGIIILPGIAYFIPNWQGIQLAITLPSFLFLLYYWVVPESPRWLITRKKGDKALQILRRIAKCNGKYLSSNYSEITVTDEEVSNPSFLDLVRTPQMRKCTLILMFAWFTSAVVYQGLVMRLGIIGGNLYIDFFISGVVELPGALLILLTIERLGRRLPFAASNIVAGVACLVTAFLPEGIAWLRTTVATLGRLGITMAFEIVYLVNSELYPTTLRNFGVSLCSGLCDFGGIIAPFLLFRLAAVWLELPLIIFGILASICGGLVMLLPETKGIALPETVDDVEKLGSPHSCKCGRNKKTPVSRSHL
# Summary of the method: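 IC50 values were fitted with a Hill equation from net uptake, calculated as uptake in overexpressing HEK293 cells minus empty-vector control uptake. Cells were exposed for 5 min to 2 μM model substrate alone, with 20 μM inhibitor, or with a concentration series. Uptake was quantified by ASP^+ fluorescence or LC–MS/MS after lysis in 80% acetonitrile.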
# [3] = biological target: T3, OCT1 (Homo sapiens, UniProt O15245); assay: Inhibition of model substrate uptake in OCT1-overexpressing HEK293 cells; format: cell-based; design: expressed in transfected cells; host or cells: HEK293; conditions: for inhibition at 5 min, 20 μM: OCT1-overexpressing HEK293 cells
# T3 sequence (O15245 1-554): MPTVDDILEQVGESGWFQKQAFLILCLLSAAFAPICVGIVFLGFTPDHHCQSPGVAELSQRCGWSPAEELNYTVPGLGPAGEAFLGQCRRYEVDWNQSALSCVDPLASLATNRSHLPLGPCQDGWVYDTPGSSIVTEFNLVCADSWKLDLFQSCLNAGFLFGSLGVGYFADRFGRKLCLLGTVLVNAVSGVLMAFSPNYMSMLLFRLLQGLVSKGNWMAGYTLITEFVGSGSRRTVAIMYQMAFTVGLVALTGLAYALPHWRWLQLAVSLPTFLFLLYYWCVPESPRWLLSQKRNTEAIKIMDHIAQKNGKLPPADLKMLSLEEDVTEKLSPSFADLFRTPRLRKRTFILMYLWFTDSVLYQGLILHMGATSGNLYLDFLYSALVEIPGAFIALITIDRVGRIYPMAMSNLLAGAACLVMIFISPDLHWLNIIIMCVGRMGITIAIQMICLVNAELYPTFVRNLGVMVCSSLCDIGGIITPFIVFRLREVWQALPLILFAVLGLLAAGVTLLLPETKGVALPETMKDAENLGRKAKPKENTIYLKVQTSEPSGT
# Procedure: Koepsell and Gorbulev (University of Würzburg, Germany).
# Fluorescence quantification was performed in technical duplicates.
# [4] = human, OCT2-overexpressing HEK293 cells, pH 7.4, probe (S,S)-ethambutol (2 μM), (S,S)-Ethambutol inhibition [%], 2 μM (S,S)-ethambutol
# [5] = human, OCT2-overexpressing HEK293 cells, pH 7.4, probe ASP+ (2 μM), ASP+ inhibition [%], 2 μM ASP+
# [6] = human, OCT2-overexpressing HEK293 cells, pH 7.4, probe N-ethyllidocaine (2 μM), N-Ethyllidocaine inhibition [%], 2 μM N-ethyllidocaine
# [7] = HEK293, 5 min, read-out: (S)-Zolmitriptan inhibition [%], OCT3, 20 μM inhibitor, 2 μM (S)-zolmitriptan, 5 min
# [8] = HEK293, 5 min, read-out: (S,S)-Ethambutol inhibition [%], OCT3, 20 μM inhibitor, 2 μM (S,S)-ethambutol, 5 min
# [9] = HEK293, OCT3, 20 μM inhibitor, 2 μM ASP+, 5 min, read-out: ASP+ inhibition [%]
# [10] = human, pH 7.4, probe (S,S)-ethambutol (2 μM), (S,S)-Ethambutol inhibition [%], OCT1, 20 μM inhibitor, 2 μM (S,S)-ethambutol, 5 min
# [11] = human, pH 7.4, probe ASP+ (2 μM), OCT1, 20 μM inhibitor, 2 μM ASP+, 5 min, mean of three experiments, read-out: ASP+ inhibition [%]
# [12] = human, pH 7.4, probe sumatriptan (2 μM), OCT1, 20 μM inhibitor, 2 μM sumatriptan, 5 min, read-out: Sumatriptan inhibition [%]
# [13] = OCT3, 20 μM inhibitor, 2 μM ASP+, 5 min
# [14] = OCT1, 20 μM inhibitor, 2 μM ASP+, 5 min, mean of three experiments
# [15] = OCT3, 20 μM inhibitor, 2 μM (S)-zolmitriptan, 5 min
# [16] = OCT1, 20 μM inhibitor, 2 μM sumatriptan, 5 min
# [17] = HEK293, 5 min, read-out: (S)-Zolmitriptan inhibition [%]
# [18] = HEK293, 5 min, read-out: (S,S)-Ethambutol inhibition [%]
Structure (SMILES),"inhibition at 5 min, 20 μM [1, 4] [%]","inhibition at 5 min, 20 μM [1, 5] [%]","inhibition at 5 min, 20 μM [1, 6] [%]","inhibition at 20 µM [2, 7] [%]","inhibition at 20 µM [2, 8] [%]","inhibition at 20 µM [2, 9] [%]","inhibition at 5 min, 20 μM [3, 10] [%]","inhibition at 5 min, 20 μM [3, 11] [%]","inhibition at 5 min, 20 μM [3, 12] [%]",ASP+ inhibition [%] ([1]; 2 μM ASP+),N-Ethyllidocaine inhibition [%] ([1]; 2 μM N-ethyllidocaine),"ASP+ inhibition [%] [2, 13] [%]","ASP+ inhibition [%] [3, 14] [%]","(S)-Zolmitriptan inhibition [%] [2, 15] [%]",other results
CNC[C@H](O)c1cccc(O)c1 [(R)-Phenylephrine],-8.4,8.2,-1.4,-2.9,5,-4.1,6.3,3.2,-2.8,,,,,,
CCCN[C@@H]1CCc2nc(N)sc2C1 [(R)-Pramipexole],10.5,43.3,37.1,13,23.1,5.3,51.6,19.8,55.8,,,,,,"IC50 [1]: 20.4 µM; IC50 ([3]; OCT1, Table S5, 2 μM ASP+ or ethambutol as model substrate, 5 min, read-out: IC50): 20.2 µM"
CC(C)NC[C@@H](O)COc1cccc2ccccc12 [(R)-Propranolol],25,47.8,20,,,,79.9,44.8,84.3,,,,,,"IC50 ([2]; OCT3, Table 1, read-out: IC50): 195 µM"
C#CCN[C@@H]1CCc2ccccc21 [(R)-Rasagiline],,,,10.3,13.4,,32,,42.7,51.7,56.7,-11.8,-1.3,,"(S,S)-Ethambutol inhibition [%] ([1]; 2 μM (S,S)-ethambutol): 51.3%"
CC(C)(C)NC[C@H](O)c1ccc(O)c(CO)c1 [(R)-Salbutamol],,,,,19.5,,12.2,5.3,,12.8,-15.0,10.3,,-6.4,"(S,S)-Ethambutol inhibition [%] ([1]; 2 μM (S,S)-ethambutol): -0.3%; Sumatriptan inhibition [%] [3, 16]: -18.8%"
CC(C)C[C@@H](N(C)C)C1(c2ccc(Cl)cc2)CCC1 [(R)-Sibutramine],,,,,,,,,,81.6,51.2,2.6,41.5,,"inhibition at 20 µM [2, 17]: 38.1%; inhibition at 20 µM [2, 18]: 35.5%; Sumatriptan inhibition [%] ([3]; human, pH 7.4): 74.0%"
CC(C)(C)NC[C@@H](O)COc1nsnc1N1CCOCC1 [(R)-Timolol],12,37.2,24.7,7.6,8.2,28.6,32.1,12.9,55,,,,,,"IC50 [1]: 121 µM; selectivity ratio at 5 min ([1]; human, OCT2-overexpressing HEK293 cells, pH 7.4): 2"
COc1ccc([C@H](CN(C)C)C2(O)CCCCC2)cc1 [(R)-Venlafaxine],,,,,,-2.8,,,,29.1,23.1,,,,"inhibition at 20 µM [2, 17]: 12.6%; inhibition at 20 µM [2, 18]: 12.3%; Sumatriptan inhibition [%] ([3]; human, pH 7.4): 70.8%"
"CCC(CO)NCCNC(CC)CO [(R,R)-Ethambutol]",,34.4,7.7,,,,,7.7,17.9,,,9.1,,-3.7,
"CCC(CO)NCCNC(CC)CO [(R,S)-Ethambutol]",,,,,,,,,,26.0,6.8,2.6,4.0,-8.0,"Sumatriptan inhibition [%] [3, 16]: 10.2%"
O=C(OC1C[N+]2(CCCOc3ccccc3)CCC1CC2)C(O)(c1cccs1)c1cccs1 [(S)-Aclidinium],,,,,,,,,,101.8,57.3,37.7,78.8,53.3,"(S,S)-Ethambutol inhibition [%] ([1]; 2 μM (S,S)-ethambutol): 2.7%; (S,S)-Ethambutol inhibition [%] ([2]; OCT3, 20 μM inhibitor, 2 μM (S,S)-ethambutol, 5 min): 67.7%; (S,S)-Ethambutol inhibition [%] ([3]; OCT1, 20 μM inhibitor, 2 μM (S,S)-ethambutol, 5 min): 101.4%; Sumatriptan inhibition [%] [3, 16]: 93.8%"
